According to patent US7326689B2, “Pseudomycins useful against plant diseases” (Eli Lilly and Company, priority 2000, dated 2008):

What was measured:
Assay in all cases: Antifungal growth assay in potato dextrose broth, 24-well
Type in all cases: cell-based
Tapesia yallundae = tested on: Tapesia yallundae; design: key: NI, no inhibition; p (partial), at least 50% inhibited; conditions: 2x assays
Procedure, shortened: (§1)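 The endpoint reported is the lowest final concentration yielding no visible fungal growth, read at two days and at five days. Broth cultures were seeded with mycelium and compared to a vehicle-only control. The tested range was 50–1.56 ug/ml.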

[1] = tested on: Pestalotiopsis microspora NE-32; design: key: NI, no inhibition; p (partial), at least 50% inhibited
Procedure, shortened: as §1

Bipolaris sorokiniana = tested on: Bipolaris sorokiniana; design: key: NI, no inhibition; p (partial), at least 50% inhibited
Procedure, shortened: as §1

Phyllosticta maydis = tested on: Phyllosticta maydis; design: key: NI, no inhibition; p (partial), at least 50% inhibited
Procedure, shortened: as §1

Drechslera teres = tested on: Drechslera teres; design: key: NI, no inhibition; p (partial), at least 50% inhibited
Procedure, shortened: as §1

Septoria passerinii = conditions: 3x assays
Protocol: (§2) Fungi to be tested were propagated on potato dextrose agar (PDA) plates at room temperature. Stock solutions of pseudomycins and depsipeptide were suspended in dimethylsulfoxide (DMSO) (Sigma) at 5 mg/ml and stored at −20C. Serial dilutions of compounds were done the day of the experiment. All serial dilutions were made in DMSO. […] These are noted in the raw data section.
(§3) Assays were performed in 24-well cell culture clusters (Costar 3524), with 990 ul potato dextrose broth (PDB, Difco) and 10 ul of the compound to be tested in each well. Initial concentrations tested were 50-1.56 ug/ml (final concentration of pseudomycin). Actual concentrations of pseudomycins tested were 50, 25, 12.5, 6.25, 3.12 and 1.56 ug/ml. Each well was inoculated with the appropriate fungus. Unless noted, the fungal inoculum consisted of an ˜4 mm^2 piece of PDA with fungal mycelium. The exceptions were as follows. Ustilago maydis: this fungus grows much like a yeast on PDA, and cells were scraped from the PDA stock plate, resuspended in PDB and 10 ul inoculum added to each well. Monilinia sp.: this fungal mycelium grows as a very loose sheet on top of PDA and would not adhere to agar blocks. Fungal mycelium was ground with a metal rod in 500 ul PDB and 10 ul inoculum was added to each well. Mycosphaeella fijiensis, Septoria passerinii, Septoria triticii: these fungi all grow very slowly and the results were difficult to score if a small piece of agar with fungal mycelium on it was used as an inoculum. For these fungi, the mycelium was ground with a metal rod in 500 ul PDB and 10 ul inoculum was added to each well.
(§4) Wells were scored for fungal growth at two days and five days. Some slow growing fungi were scored at later days for growth because assessment was not possible at two or five days. Growth was scored by comparison to a control consisting of fungus inoculated into 990 ul potato dextrose broth and 10 ul of DMSO (Dimethylsulfoxide). An additional control consisting of fungal inoculum in PDB only was performed to ensure that the DMSO was not inhibitory to fungal growth.
(§5) For assays that were repeated, new stock solutions were made from a second shipment of pseudomycins. Note that pseudomycin B′ and depsipeptide stock solutions were remade from first shipment materials because these were not included in the second shipment. […] Actual concentrations of pseudomycins tested were 2, 1, 0.5, 0.25, 0.125 and 0.0625 ug/ml. A-PO4 and A-FB=pseudomycin A phosphate salt and free base respectively.
(§6) Table 2: Two day results—concentration indicated is lowest level of compound (ug /ml) that results is no growth. NI, no inhibition; p (partial), at least 50% inhibited; -, not determined. If number of assays was greater than one, number of assays performed on the fungus is noted in parentheses. For several slow-growing fungi, days elapsed before observation (if different than two) are noted.
(§7) Table 3: Five day results—concentration indicated is lowest level of compound (ug /ml) that results in no growth. NI, no inhibition; p (partial), at least 50% inhibited; -, not performed on the fungus is noted in parentheses. For several slow-growing fungi, days elapsed before observation (if different than five) are noted.

Geotrichim candidum = conditions: 3x assays
Protocol: as §2, §3, §4, §5, §6, §7

Drechslera portulacae = conditions: 3x assays
Protocol: as §2, §3, §4, §5, §6, §7

Septoria tritici = conditions: 3x assays
Protocol: as §2, §3, §4, §5, §6, §7

Ustilago maydis = conditions: 3x assays
Protocol: as §2, §3, §4, §5, §6, §7

Penicillium roqueforti = conditions: 3x assays
Protocol: as §2, §3, §4, §5, §6, §7

[2] = tested on: Mycosphaeella fijiensis (8088/88); conditions: 3x assays
Protocol: as §2, §3, §4, §5, §6, §7

Rhizoctonia solani = conditions: 2x assays
Protocol: as §2, §3, §4, §5, §6, §7

Monilinia sp. = conditions: 2x assays
Protocol: as §2, §3, §4, §5, §6, §7

[3] = tested on: Mycosphaeella fijiensis (Sigatoka); conditions: 3x assays
Protocol: as §2, §3, §4, §5, §6, §7

[4] = Table 2 (two day results), observed at 7 day
[5] = Table 3 (five day results), observed at 21 days

Substance	lowest level of compound that results in no growth (Tapesia yallundae; five day results) [µg/mL]	lowest level of compound that results in no growth (Tapesia yallundae; two day results) [µg/mL]	lowest level of compound that results in no growth ([1]; five day results)	lowest level of compound that results in no growth ([1]; two day results)	lowest level of compound that results in no growth (Bipolaris sorokiniana; five day results)	lowest level of compound that results in no growth (Bipolaris sorokiniana; two day results)	lowest level of compound that results in no growth (Phyllosticta maydis; five day results)	lowest level of compound that results in no growth (Phyllosticta maydis; two day results)	lowest level of compound that results in no growth (Drechslera teres; five day results)	lowest level of compound that results in no growth (Drechslera teres; two day results)	lowest level of compound that results in no growth (Septoria passerinii; five day results) [µg/mL]	lowest level of compound that results in no growth (Septoria passerinii; two day results) [µg/mL]	lowest level of compound that results in no growth (Geotrichim candidum; five day results) [µg/mL]	lowest level of compound that results in no growth (Geotrichim candidum; two day results) [µg/mL]	lowest level of compound that results in no growth (Drechslera portulacae; two day results) [µg/mL]	lowest level of compound that results in no growth (Septoria tritici; five day results) [µg/mL]	lowest level of compound that results in no growth (Septoria tritici; two day results) [µg/mL]	lowest level of compound that results in no growth (Ustilago maydis; five day results) [µg/mL]	lowest level of compound that results in no growth (Ustilago maydis; two day results) [µg/mL]	lowest level of compound that results in no growth (Penicillium roqueforti; five day results) [µg/mL]	other results
pseudomycin A-PO4	50	25	NI	p at 50	NI	NI	NI	p at 50	NI	NI	0.12	0.125	6.25	12.5	0.06	0.25	0.25	1	0.5	3.12	lowest level of compound that results in no growth (Drechslera portulacae; Table 3 (five day results), observed at 9 day, listed as A-PO4): 0.06 µg/mL; lowest level of compound that results in no growth (Drechslera portulacae; Table 3 (five day results), observed at 9 day, listed as pseudomycin A (PO4)): 0.0625 µg/mL; lowest level of compound that results in no growth (Penicillium roqueforti; two day results): 0.5 µg/mL; lowest level of compound that results in no growth [2, 4]: 0.12 µg/mL; lowest level of compound that results in no growth [2, 5]: 0.25 µg/mL; lowest level of compound that results in no growth (Rhizoctonia solani; five day results): 12.5 µg/mL; lowest level of compound that results in no growth (Rhizoctonia solani; two day results): 6.25 µg/mL; lowest level of compound that results in no growth (Monilinia sp.; five day results): 12.5 µg/mL; lowest level of compound that results in no growth (Monilinia sp.; two day results): 12.5 µg/mL; lowest level of compound that results in no growth [3, 4]: 1 µg/mL; lowest level of compound that results in no growth [3, 5]: 1 µg/mL
Pseudomycin B′	50	6.25	NI	NI	NI	NI	NI	p at 50	NI	NI	0.5	0.5	25	25	0.12	0.5	0.5	3.12	1.56	1.56	lowest level of compound that results in no growth (Drechslera portulacae; Table 3 (five day results), observed at 9 day): 0.25 µg/mL; lowest level of compound that results in no growth (Penicillium roqueforti; two day results): 1.56 µg/mL; lowest level of compound that results in no growth [2, 4]: 0.5 µg/mL; lowest level of compound that results in no growth [2, 5]: 1 µg/mL; lowest level of compound that results in no growth (Rhizoctonia solani; five day results): 6.25 µg/mL; lowest level of compound that results in no growth (Rhizoctonia solani; two day results): 6.25 µg/mL; lowest level of compound that results in no growth (Monilinia sp.; five day results): 25 µg/mL; lowest level of compound that results in no growth (Monilinia sp.; two day results): 25 µg/mL; lowest level of compound that results in no growth [3, 4]: 0.5 µg/mL; lowest level of compound that results in no growth [3, 5]: 1 µg/mL
